Patent US20240108740A1, “THERAPEUTIC COMPOSITIONS INCLUDING SPN10 AND USES THEREOF” (Stealth BioTherapeutics Inc., priority 2022, published 2024)
Residues, ends and D or L forms follow the SMILES beside them.

System: fatty (fa/fa) Zucker rats
Assay: Example 36: insulin resistance in fatty Zucker rats
Type: in vivo, rat
Conditions: approximately 6 weeks
Method: Peptide conjugates (1.0-5.0 mg/kg body wt); aromatic-cationic peptides (an equivalent molar dose of aromatic-cationic peptide based on the concentration of the aromatic-cationic peptide administered in the peptide conjugate treatment group); SPN10(s) (an equivalent molar dose of SPN10 based on the concentration of SPN10 administered in the peptide conjugate treatment group); or SPN10(s) in combination with aromatic-cationic peptides (e.g., an equivalent molar dose of SPN10 based on the concentration of SPN10 administered in the peptide conjugate treatment group and an equivalent molar dose of aromatic-cationic peptide based on the concentration of aromatic-cationic peptide administered in the peptide conjugate treatment group) will be administered to the rats intraperitoneally (i.p.) or orally (drinking water or oral gavage).
Physiological parameters measured will include body weight, fasting glucose/insulin/free fatty acid, oral glucose tolerance (OGTT), in vitro muscle insulin sensitivity (in vitro incubation), biomarkers of insulin signaling (Akt-P, IRS-P), mitochondrial function studies on permeabilized fibers (respiration, H2O2 production), biomarkers of intracellular oxidative stress (lipid peroxidation, GSH/GSSG ratio, aconitase activity), and mitochondrial enzyme activity. Control animals will include wild-type and untreated fatty rats. […]

N=C(N)NCCC[C@H](NC(=O)[C@@H](N)Cc1c[nH]c2ccccc12)C(=O)N[C@@H](Cc1c[nH]c2ccccc12)C(=O)N[C@@H](CCCCN)C(N)=O [SPN10, H-L-Trp-L-Arg-L-Trp-L-Lys-NH2] (H-WRWK-NH2)
whole body and muscle insulin resistance (treatment) (Zucker rats (~12 weeks of age)): reduce the whole body and muscle insulin resistance | development of whole body and muscle insulin resistance (prevention) (young Zucker rats (~3-4 weeks of age)): attenuate or prevent the development of whole body and muscle insulin resistance
